The numbers were not newly measured in patent US10729636B2, “Compositions comprising peptide [sequence]” (NURITAS LIMITED, priority 2016, dated 2020), which cites them from elsewhere.

Like-named read-outs stand apart in the source and are kept apart here.

For series [1] the following is noted: cited from earlier work.
For a further series, the system named is lipoproteins. Conditions: binding to lipoproteins; cited from earlier work.
For series [2] the following is noted: humans who took more vitamin E on a regular basis vs those who took less; study on nurses; cited from earlier work.

For the molecule `CCNC(=O)[C@@H]1CCCN1C(=O)[C@H](CCCNC(=N)N)NC(=O)[C@H](CC(C)C)NC(=O)[C@@H](COC(C)(C)C)NC(=O)[C@H](Cc1ccc(O)cc1)NC(=O)[C@H](CO)NC(=O)[C@H](Cc1c[nH]c2ccccc12)NC(=O)[C@H](Cc1cnc[nH]1)NC(=O)[C@@H]1CCC(=O)N1` [buserelin], the half-life entry in series [1] (in words) was “much longer”. Consider `C[C@@H](O)[C@@H]1NC(=O)[C@H](CCCCN)NC(=O)[C@@H](Cc2c[nH]c3ccccc23)NC(=O)[C@H](Cc2ccccc2)NC(=O)[C@@H](NC(=O)[C@H](N)Cc2ccccc2)CSSC[C@@H](C(=O)N[C@H](CO)[C@@H](C)O)NC1=O` [octreotide], for which, in series [1] (in humans), the half-life result was “about 100 min”. Besides, in the series on lipoproteins, the fraction unbound is 0.65. With `NC(=O)CC[C@@H]1NC(=O)[C@H](Cc2ccccc2)NC(=O)[C@H](Cc2ccc(O)cc2)NC(=O)[C@@H](N)CSSC[C@@H](C(=O)N2CCC[C@H]2C(=O)N[C@@H](CCCN=C(N)N)C(=O)NCC(N)=O)NC(=O)[C@H](CC(N)=O)NC1=O` [vasopressin], in series [1] (in humans), the half-life is 10 to 35 min. In the case of gonadotropin-releasing hormone, the half-life entry in series [1] (in words) was “very short”. Consider vitamin E, for which the “lower incidence of heart disease” value in series [2] was 41%.

The half-life is the time in which the quantity being followed falls by half. What is called fraction unbound is free concentration divided by total concentration.
